Measurements from patent publication US10294202B2, “Pyrrolidinones as herbicides” (FMC Corporation, priority 2013, dated 2019).

Tests used:
barnyardgrass = test: Test A pre-/postemergence herbicide test; assay type: in vivo, Echinochloa crus-galli
Summary of the method: (§1)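 Scoring was visual, relative to untreated controls, on a 0–100 scale after about 10 greenhouse days. Preemergence treatment used a directed soil spray over seeded loam/sand; postemergence treatment targeted one- to two-leaf plants of 2–10 cm.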

giant foxtail = test: Test A pre-/postemergence herbicide test; assay type: in vivo, Setaria faberii; settings: for Plant response rating, Foxtail, Giant: 0 to 100 scale
Summary of the method: as §1

pigweed = test: Test A pre-/postemergence herbicide test; assay type: in vivo, Amaranthus retroflexus; settings: for Plant response rating, Pigweed: 0 to 100 scale
Summary of the method: as §1

ragweed = test: Test A pre-/postemergence herbicide test; assay type: in vivo, Ambrosia elatior; settings: for Plant response rating, Ragweed: 0 to 100 scale
Summary of the method: as §1

blackgrass = test: Test A postemergence herbicide test; assay type: in vivo, Alopecurus myosuroides; settings: for Plant response rating, Blackgrass: 125 g ai/ha, 0 to 100 scale, 0 is no effect, 100 is complete control; for Blackgrass plant response rating (0 to 100 scale, 0 is no effect, 100 is complete control): 500 g ai/ha
Summary of the method: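 Young potted plants in a loam–sand mix, one- to two-leaf stage and 2–10 cm tall, receive the test chemical postemergence and stay in a greenhouse for approximately 10 days. Injury is then judged by eye against untreated plants, scored 0 (none) to 100 (complete control).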

corn = test: Test A pre-/postemergence herbicide test; assay type: in vivo, Zea mays; settings: Postemergence; for Plant response rating, Corn: 125 g ai/ha, 0 to 100 scale, 0 is no effect, 100 is complete control; for Corn plant response rating (0 to 100 scale, 0 is no effect, 100 is complete control): 500 g ai/ha
Summary of the method: as §1

ryegrass, Italian = test: Test A pre-/postemergence herbicide test; assay type: in vivo, Lolium multiflorum; settings: for Plant response rating, Ryegrass, Italian: 0 to 100 scale
Summary of the method: as §1

kochia = test: Test A pre-/postemergence herbicide test; assay type: in vivo, Kochia scoparia; settings: for Plant response rating, Kochia: 0 to 100 scale
Summary of the method: as §1

wheat = test: Test A pre-/postemergence herbicide test; assay type: in vivo, Triticum aestivum; settings: Postemergence; for Plant response rating, Wheat: 125 g ai/ha, 0 to 100 scale, 0 is no effect, 100 is complete control; for Wheat plant response rating (0 to 100 scale, 0 is no effect, 100 is complete control): 500 g ai/ha
Summary of the method: as §1

galium = test: Test A postemergence herbicide test; assay type: in vivo, Galium aparine; settings: for Plant response rating, Galium: 125 g ai/ha, 0 to 100 scale, 0 is no effect, 100 is complete control; for Galium plant response rating (0 to 100 scale, 0 is no effect, 100 is complete control): 500 g ai/ha
Text: At the same time, plants selected from these crop and weed species and also blackgrass (Alopecurus myosuroides), and galium (catchweed bedstraw, Galium aparine) were planted in pots containing the same blend of loam soil and sand and treated with postemergence applications of test chemicals formulated in the same manner. Plants ranged in height from 2 to 10 cm and were in the one- to two-leaf stage for the postemergence treatment. Treated plants and untreated controls were maintained in a greenhouse for approximately 10 days, after which time all treated plants were compared to untreated controls and visually evaluated for injury. Plant response ratings, summarized in Table A, are based on a 0 to 100 scale where 0 is no effect and 100 is complete control. A dash (-) response means no test result.

[1] = 125 g ai/ha, visual rating, 0 to 100 scale, 0 no effect, 100 complete control, approximately 10 days, preemergence
[2] = Postemergence, 125 g ai/ha, 0 to 100 scale, 0 is no effect, 100 is complete control
[3] = 125 g ai/ha, visual rating, 0 no effect, 100 complete control, approximately 10 days, preemergence
[4] = Postemergence, 125 g ai/ha, 0 is no effect, 100 is complete control
[5] = preemergence, 500 g ai/ha, 0 is no effect and 100 is complete control

SMILES	Plant response rating, Barnyardgrass (barnyardgrass; [1])	Plant response rating, Barnyardgrass (barnyardgrass; [2])	Barnyardgrass plant response rating (0 to 100 scale, 0 is no effect, 100 is complete control) (barnyardgrass; Postemergence, 500 g ai/ha)	Plant response rating, Foxtail, Giant (giant foxtail; [3])	Plant response rating, Foxtail, Giant (giant foxtail; [4])	Foxtail, Giant plant response rating (0 to 100 scale, 0 is no effect, 100 is complete control) (giant foxtail; Postemergence, 500 g ai/ha)	Plant response rating, Pigweed (pigweed; [3])	Plant response rating, Pigweed (pigweed; [4])	Pigweed plant response rating (0 to 100 scale, 0 is no effect, 100 is complete control) (pigweed; Postemergence, 500 g ai/ha)	Plant response rating, Pigweed (pigweed; [5])	Plant response rating, Ragweed (ragweed; [3])	Plant response rating, Ragweed (ragweed; [4])	Ragweed plant response rating (0 to 100 scale, 0 is no effect, 100 is complete control) (ragweed; Postemergence, 500 g ai/ha)	Plant response rating, Ragweed (ragweed; [5])	Plant response rating, Blackgrass (blackgrass)	Blackgrass plant response rating (0 to 100 scale, 0 is no effect, 100 is complete control) (blackgrass)	Plant response rating, Corn (corn)	Corn plant response rating (0 to 100 scale, 0 is no effect, 100 is complete control) (corn)	Plant response rating, Ryegrass, Italian (ryegrass, Italian; [3])	Plant response rating, Ryegrass, Italian (ryegrass, Italian; [4])	also measured
Cc1ccc(F)c(NC(=O)C2C(=O)NCC2c2cccc(C(F)(F)F)c2)c1 (racemic) [Compound 183]	0	0	0	0	0	0	0	0	0	0	0	0	0	0	0	0	0	0	0	0	Plant response rating, Barnyardgrass (barnyardgrass; preemergence, 500 g ai/ha, 0 to 100 scale, 0 is no effect and 100 is complete control): 0; Plant response rating, Foxtail, Giant (giant foxtail; [5]): 0; Ryegrass, Italian plant response rating (0 to 100 scale, 0 is no effect, 100 is complete control) (ryegrass, Italian; Postemergence, 500 g ai/ha): 0; Plant response rating, Ryegrass, Italian (ryegrass, Italian; [5]): 0; Plant response rating, Kochia (kochia; [3]): 0; Plant response rating, Kochia (kochia; [4]): 0; Kochia plant response rating (0 to 100 scale, 0 is no effect, 100 is complete control) (kochia; Postemergence, 500 g ai/ha): 0; Plant response rating, Kochia (kochia; [5]): 0; Plant response rating, Wheat (wheat): 0; Wheat plant response rating (0 to 100 scale, 0 is no effect, 100 is complete control) (wheat): 0; Plant response rating, Galium (galium): 0; Galium plant response rating (0 to 100 scale, 0 is no effect, 100 is complete control) (galium): 0
O=C1NCC(c2ccc(OC(F)(F)C(F)F)cc2)C1C(=O)Nc1cccc(F)c1F (racemic) [Compound 172]	0	0	20	20	0	30	0	0	0	0	0	0	0	0	0	0	0	0	0	0	Plant response rating, Barnyardgrass (barnyardgrass; preemergence, 500 g ai/ha, 0 to 100 scale (0 no effect, 100 complete control)): 20; Plant response rating, Foxtail, Giant (giant foxtail; preemergence, 500 g ai/ha): 30; Ryegrass, Italian plant response rating (0 to 100 scale, 0 is no effect, 100 is complete control) (ryegrass, Italian; Postemergence, 500 g ai/ha): 0; Plant response rating, Ryegrass, Italian (ryegrass, Italian; [5]): 0; Plant response rating, Kochia (kochia; [3]): 30; Plant response rating, Kochia (kochia; [4]): 0; Kochia plant response rating (0 to 100 scale, 0 is no effect, 100 is complete control) (kochia; Postemergence, 500 g ai/ha): 0; Plant response rating, Kochia (kochia; [5]): 30; Plant response rating, Wheat (wheat): 0; Wheat plant response rating (0 to 100 scale, 0 is no effect, 100 is complete control) (wheat): 0; Plant response rating, Galium (galium): 0; Galium plant response rating (0 to 100 scale, 0 is no effect, 100 is complete control) (galium): 0
